The values that follow come from publication PMC13702766, “Pharmacokinetic-Modifying Linker Design Modulates Performance of Multivalent PSMA/GRPR-Cell-Targeting ^177Lu Radiopharmaceuticals” (Cancers, 2026).

The target of this experiment is T1, PSMA (Homo sapiens, UniProt Q04609).
T1 construct: LNCaP whole cells were prepared in suspension; host or cells: LNCaP human prostate carcinoma cells
The experiment in a line: Whole-cell competitive binding assay in PSMA[+] LNCaP cells vs [177Lu]Lu-PSMA-617. Here is the method: LNCaP whole cells were prepared in suspension (7.50 × 10^5 cells/mL) in binding media (DMEM + 0.2% BSA + 25 mM HEPES). […] Samples were incubated at room temperature for 60 min, centrifuged, and the supernatant was removed. Cell pellets were washed twice with ice-cold PBS and subsequently counted using an automated gamma counter. […] IC50 values were determined by nonlinear regression in GraphPad Prism, with all experiments performed in triplicate.

As a reminder, the IC50 is the concentration needed to halve the response being measured. Low values mean inhibition by little substance, high ones a need for much substance.

T1 sequence (Q04609 whole entry): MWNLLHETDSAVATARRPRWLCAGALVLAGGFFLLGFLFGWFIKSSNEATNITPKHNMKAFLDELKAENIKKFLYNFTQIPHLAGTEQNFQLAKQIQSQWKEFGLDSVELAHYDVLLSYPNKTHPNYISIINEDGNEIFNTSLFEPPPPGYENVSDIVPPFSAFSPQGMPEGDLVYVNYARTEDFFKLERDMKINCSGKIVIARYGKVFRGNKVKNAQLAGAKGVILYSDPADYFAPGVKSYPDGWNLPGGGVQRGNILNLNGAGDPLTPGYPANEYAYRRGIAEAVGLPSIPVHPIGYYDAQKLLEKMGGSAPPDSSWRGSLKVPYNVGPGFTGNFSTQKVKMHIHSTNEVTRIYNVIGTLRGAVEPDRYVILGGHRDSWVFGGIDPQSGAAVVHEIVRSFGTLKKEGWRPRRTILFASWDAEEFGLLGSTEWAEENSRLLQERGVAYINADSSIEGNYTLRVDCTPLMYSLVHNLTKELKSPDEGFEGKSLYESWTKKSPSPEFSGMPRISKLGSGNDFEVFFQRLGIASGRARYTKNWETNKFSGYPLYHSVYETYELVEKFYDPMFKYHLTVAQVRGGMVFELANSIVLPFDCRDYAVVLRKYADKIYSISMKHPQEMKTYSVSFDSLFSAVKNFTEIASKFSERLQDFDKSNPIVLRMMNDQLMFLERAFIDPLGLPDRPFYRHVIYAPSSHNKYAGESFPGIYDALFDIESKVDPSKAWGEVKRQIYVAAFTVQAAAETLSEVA

Consider `O=C(O)CC[C@H](NC(=O)N[C@@H](CCCCNC(=O)[C@H](Cc1ccc2ccccc2c1)NC(=O)[C@H]1CC[C@H](CNC(=O)CN2CCN(CC(=O)O)CCN(CC(=O)O)CCN(CC(=O)O)CC2)CC1)C(=O)O)C(=O)O` [PSMA-617], for which the IC50 was found to be 2.7 ± 0.1 nM.
